Results on two compounds are retold here after patent US20220177510A1, “DERIVATIVES OF GYLCERO-MANNO-HEPTOSE ADP FOR USE IN MODULATING IMMUNE RESPONSE” (priority 2019, published 2022).

Molecules are shown by their SMILES.

One may read the EC50 as the concentration that produces a half-maximal response.

The target in assay [1] is T1, ALPK1 (Homo sapiens, UniProt Q96QP1).
T1 construct: endogenous in cells; host or cells: HEK293 (A1); HEK293 stably expressing an NF-kB-alkaline phosphatase reporter (A2)
Put plainly: IL-8 secretion by HEK293 cells (IL-8 ELISA) as indication of ALPK1 activation. Format: cell-based. The settings on record: HEK293 cells treated 4 hours, FIG. 6, Table 2A. As to the method:
HEK293 cells were treated with H1b-ADP derivatives (A1, A2, A3, and A4) or with Compound 28 for 4 hours followed by analysis of IL-8 secretion using an IL-8 enzyme linked immunoassay (ELISA). IL-8 secretion is an indication of ALPK1 activation. The EC50 of each compound was determined using GraphPad Prism.
In general terms: In an ELISA, binding on a coated surface is turned into a signal by an enzyme label.

In assay [2] the target is T1, ALPK1. The experiment in a line: NF-kB promoter driven alkaline phosphatase reporter in HEK293 cells (pNPP assay). The format is cell-based. Particulars: HEK293-NFkB-AP reporter cells treated 7 hours, FIG. 7A, Table 2B. As to the method:
NF-kB activation was assayed using HEK293 cells stably expressing an NF-kB reporter construct comprising an NF-kB promoter driving expression of alkaline phosphatase (AP). In this system, activation of NF-kB promoter activity drives the expression of AP which is detected using a chromogenic substrate, para-nitrophenyl phosphate (pNPP).
To assess the ALPK1 agonist activity of test compounds, the HEK293 cells were seeded in 96-well plates and allowed to attach overnight. Cells were then exposed to graded concentrations of compounds A1, A2, A3, A4, A18, A26, A27, A28, and A30. Compound 28 was included as a reference. Following treatment, cell culture supernatants were collected and analyzed for alkaline phosphatase activity using the pNPP assay. The results are shown in FIGS. 7A-7B and Table 2B-C below. The EC50 for each compound was determined using GraphPad Prism.

T1 sequence (Q96QP1 whole entry): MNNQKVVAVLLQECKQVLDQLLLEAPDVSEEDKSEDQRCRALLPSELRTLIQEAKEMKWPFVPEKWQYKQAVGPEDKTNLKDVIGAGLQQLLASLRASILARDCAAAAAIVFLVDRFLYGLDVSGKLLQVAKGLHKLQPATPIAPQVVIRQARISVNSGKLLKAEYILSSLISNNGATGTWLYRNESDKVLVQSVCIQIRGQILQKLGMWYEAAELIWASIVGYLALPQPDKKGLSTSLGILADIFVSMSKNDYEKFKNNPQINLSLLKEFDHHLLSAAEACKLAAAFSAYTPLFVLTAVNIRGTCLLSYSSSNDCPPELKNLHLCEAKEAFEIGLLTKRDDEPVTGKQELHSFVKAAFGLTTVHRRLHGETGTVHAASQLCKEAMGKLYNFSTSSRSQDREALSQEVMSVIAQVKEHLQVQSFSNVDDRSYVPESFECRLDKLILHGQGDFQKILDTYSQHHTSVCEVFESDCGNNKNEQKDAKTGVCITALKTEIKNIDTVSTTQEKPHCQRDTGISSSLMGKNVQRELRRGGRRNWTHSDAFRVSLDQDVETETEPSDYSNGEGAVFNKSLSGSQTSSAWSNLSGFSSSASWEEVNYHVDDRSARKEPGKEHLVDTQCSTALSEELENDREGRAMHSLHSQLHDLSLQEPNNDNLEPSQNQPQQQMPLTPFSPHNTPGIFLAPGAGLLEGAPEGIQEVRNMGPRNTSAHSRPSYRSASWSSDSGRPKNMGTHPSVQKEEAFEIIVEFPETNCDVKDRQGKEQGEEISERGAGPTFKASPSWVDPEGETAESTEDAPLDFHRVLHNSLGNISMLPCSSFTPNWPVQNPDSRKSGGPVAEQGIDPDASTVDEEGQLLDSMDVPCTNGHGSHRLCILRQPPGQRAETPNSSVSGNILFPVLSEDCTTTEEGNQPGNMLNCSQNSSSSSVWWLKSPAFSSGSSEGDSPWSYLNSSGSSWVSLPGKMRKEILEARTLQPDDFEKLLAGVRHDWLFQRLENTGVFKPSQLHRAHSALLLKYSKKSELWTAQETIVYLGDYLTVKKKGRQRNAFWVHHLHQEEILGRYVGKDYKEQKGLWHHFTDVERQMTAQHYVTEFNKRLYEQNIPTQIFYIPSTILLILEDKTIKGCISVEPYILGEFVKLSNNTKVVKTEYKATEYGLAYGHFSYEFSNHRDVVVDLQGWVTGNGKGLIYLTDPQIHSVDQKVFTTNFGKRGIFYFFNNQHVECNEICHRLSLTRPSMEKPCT

`CCCCCCCCCCCCCC(=O)OC[C@H](F)C1O[C@@H](OP(=O)(O)OP(O)(=S)OC[C@H]2O[C@@H](n3cnc4c(N)ncnc43)C(O)C2O)C(OC(C)=O)C(OC(C)=O)[C@@H]1OC(C)=O` (stereo partly drawn) [Compound A3, (2S,3S,4S,5S,6S)-2-(((((((2R,3S,4R,5R)-5-(6-amino-9H-purin-9-yl)-3,4-dihydroxytetrahydrofuran-2-yl)methoxy)(hydroxy)phosphorothioyl)oxy)(hydroxy)phosphoryl)oxy)-6-((S)-1-fluoro-2-(tetradecanoyloxy)ethyl)tetrahydro-2H-pyran-3,4,5-triyl triacetate]: the concentration giving a half-maximal response (EC50) at ALPK1 [1] amounted to 2 nM; on ALPK1 [2], 3.9 nM.
Regarding `CCCCCCCCC(=O)OC[C@H](F)C1O[C@@H](OP(=O)(O)OP(O)(=S)OC[C@H]2O[C@@H](n3cnc4c(N)ncnc43)C(O)C2O)C(OC(C)=O)C(OC(C)=O)[C@@H]1OC(C)=O` (stereo partly drawn) [Compound A4, (2S,3S,4S,5S,6S)-2-(((((((2R,3S,4R,5R)-5-(6-amino-9H-purin-9-yl)-3,4-dihydroxytetrahydrofuran-2-yl)methoxy)(hydroxy)phosphorothioyl)oxy)(hydroxy)phosphoryl)oxy)-6-((S)-1-fluoro-2-(nonanoyloxy)ethyl)tetrahydro-2H-pyran-3,4,5-triyl triacetate], the concentration giving a half-maximal response (EC50) at ALPK1 [1] was found to be 19.2 nM; at ALPK1 [2] it was 19.1 nM.
